# Key:
# [1] = test system: acetylcholinesterase (AchE); type: in vivo, Wistar male rats; settings: rat, oral, 1-2 mg/kg
# mouse [2] = assay: Spontaneous motility, Dews method modified according to Carminati (class D derivatives); type: in vivo; settings: mouse (Swiss)
# Text: (§1) The Dews method was used, modified according to Carminati (Arch. int. Pharmacodyn. et Thér 181, 68,1969).
# mice (Swiss strain) [3] = assay: Acute toxicity, LD50 by oral route in mice (class D derivatives); type: in vivo; settings: mouse, suspension in 2 % carboxymethylcellulose, observation 7 days
# Text: The letal doses 50 (LD50) by oral route (suspension in 2 % carboxymethylcellulose) are reported hereinbelow: TABLE 6
# [4] = biological target: T1, AChE (acetylcholinesterase) on the mouse brain (Mus musculus, UniProt P21836); assay: Inhibition of AChE on the mouse brain after single doses (class F derivatives); type: in vivo; settings: single doses (0.4-7 mg/kg)
# T1 construct: from tissue; host or cells: mouse brain
# T1 sequence (P21836 32-614): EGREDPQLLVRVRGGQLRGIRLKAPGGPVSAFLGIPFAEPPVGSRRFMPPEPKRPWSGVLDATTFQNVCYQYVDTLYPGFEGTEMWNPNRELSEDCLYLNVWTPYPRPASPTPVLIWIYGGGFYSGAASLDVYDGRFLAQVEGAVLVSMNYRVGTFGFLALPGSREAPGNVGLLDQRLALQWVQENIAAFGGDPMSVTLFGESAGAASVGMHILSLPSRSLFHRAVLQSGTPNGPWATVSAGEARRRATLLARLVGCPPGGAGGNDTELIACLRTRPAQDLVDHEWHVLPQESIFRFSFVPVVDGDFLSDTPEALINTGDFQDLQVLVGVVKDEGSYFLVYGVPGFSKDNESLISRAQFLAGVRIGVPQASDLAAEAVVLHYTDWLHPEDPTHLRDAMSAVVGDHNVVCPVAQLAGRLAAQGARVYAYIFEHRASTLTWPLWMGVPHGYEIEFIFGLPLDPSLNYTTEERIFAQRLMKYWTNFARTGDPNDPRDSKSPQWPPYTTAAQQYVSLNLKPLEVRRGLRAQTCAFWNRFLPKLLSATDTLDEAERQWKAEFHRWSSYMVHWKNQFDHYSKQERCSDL
# motor activity = assay: Antagonistic effect on the stimulating effect of scopolamine (class F derivatives); type: in vivo; settings: scopolamine 1 mg/kg; oral administration
# Method: At the dose of 1 mg/kg the scopolamine produce a clear stimulating effect (100 % of motor activity increase). This is countered by the oral administration of 2.5 mg of the three products MGR001, MGR002 and MGR003.
# [5] = Pharmacokinetics after oral and intramuscular administration (class F derivatives); type: in vivo; settings: rats; for maximum peak / time of the maximum peak after the oral administration: oral administration 7 mg/kg
# Method: The kinetics of MGR001, MGR002, and MGR003 is determined in rats after oral administration and intramuscular of respectively 7 and 3.5 mg/kg. The maximum peak of 30 µg/ml is found 1 hour after the oral administration.
# [6] = test system: mice (Swiss strain of both sexes); assay: Acute toxicity, LD50 by oral administration in mice (class F derivatives); settings: mice, oral administration
# rabbit [7] = assay: Effect on the duration of the curarization by succinylcholine (class D derivatives); type: in vivo; settings: anesthetized rabbit, 0.5 mg intravenous
# mice (Swiss strain) [8] = assay: Acute toxicity, LD50 by oral route in mice (class A derivatives); type: in vivo; settings: mouse, suspension in 2 % carboxymethylcellulose, observation 7 days
# Text: The letal doses 50 (LD50) by oral route (suspension in 2 % carboxymethylcellulose) are reported herinbelow: TABLE 1
# [9] = test system: acetylcholinesterase (AchE); type: in vivo, Wistar male rats; settings: rat, oral, 1.5 to 4.5 mg/kg
# rabbit [10] = assay: Effect on the duration of the curarization by succinylcholine (class A derivatives); type: in vivo; settings: anesthetized rabbit, 0.8 mg/kg intravenous
# Text: . […] By using the same method (male rabbits of the tawny strain of Bourgogne; […]
# mouse [11] = assay: Spontaneous motility, Dews method modified according to Carminati (class A derivatives); type: in vivo; settings: mouse (Swiss), oral, starting from minimum doses of 4-6 mg/kg
# Text: as §1
Compound,inhibitory acetylcholinesterase activity (in words) [1],oral dose causing a significant decrease of the spontaneous motility (mouse [2]) [mg/kg],LD50 per os (mice (Swiss strain) [3]) [mg/kg],inhibition of AChE (acetylcholinesterase) on the mouse brain (in words) [4],oral dose countering the stimulating effect of scopolamine (motor activity) [mg],liver kinetics / excretion [5],maximum peak [5] [µg/mL],time of the maximum peak after the oral administration [5] [h],LD50 [6] [mg/kg],further results
"CN1CC[C@@]2(C)c3cc(OC(=O)NCCCCCCCN)ccc3N(C)[C@@H]12 [MGF005, (3a S-cis) - 1,2,3,3a,8,8a hexahydro - 1,3a,8 - trimethyl pyrrol [2,3,b]-indol-5-ol-amino heptyl carbamate ester]",clear inhibitory dose-dependent and reversible,2.5 to 5,428.42 ± 56.21,–,–,–,–,–,–,–
"CC(=O)OCC(COP(=O)(O)OCCNC(=O)Oc1ccc2c(c1)[C@]1(C)CCN(C)[C@@H]1N2C)OC(C)=O (stereo partly drawn) [MGR001, (3aS-cis) 1,2,3,3a,8,8a-hexahydro-1,3a,8 trimethyl-pyrrol-[2,3-b]-indol-5-ol-diacetylglycerylphosphoryl-ethyl carbamate ester]",–,–,–,dose-dependence and reversible inhibition,2.5,pass through into the urine unchanged,30,1,500,–
"CNCCCCCNC(=O)Oc1ccc2c(c1)[C@]1(C)CCN(C)[C@@H]1N2C [MGF002, (3a S-cis) - 1,2,3,3a,8,8a hexahydro - 1,3a,8 - trimethyl pyrrol [2,3,b]-indol-5-ol-N-methyl-aminopentyl carbamate ester]",clear inhibitory dose-dependent and reversible,2.5 to 5,436.72 ± 23.45,–,–,–,–,–,–,curare effect of succinylcholine compared with physostigmine (rabbit [7]): prolonged in the same way as physostigmine the curare effect of succinylcholine
"CCCCCCCOC(=O)[C@@H](NC(=O)Oc1ccc2c(c1)[C@]1(C)CCN(C)[C@@H]1N2C)[C@@H](C)CC [MGS102, (3aS-cis) 1,2,3,3a,8,8a hexahydro-1,3a, 8-trimethyl-pyrrol (2,3-b) indol-5-ol-L-(3-methyl-2 carboxy-n-heptyl)-butyl-carbamate]",–,–,–,–,–,–,–,–,–,LD50 per os (mice (Swiss strain) [8]): 358.3 ± 18.83 mg/kg; inhibitory cerebral and serumal acetylcholinesterase activity (in words) [9]: clear inhibitory dose-dependent and reversible; effect on the curarization by succinylcholine compared with physostigmine (rabbit [10]): induced the same anticholinesterase effect of physostigmine; decrease of the spontaneous motility (on average) (mouse [11]): ~-30%
"CC(=O)OCC(COP(=O)(O)OC[C@H](NC(=O)Oc1ccc2c(c1)[C@]1(C)CCN(C)[C@@H]1N2C)C(=O)O)OC(C)=O (stereo partly drawn) [MGR003, (3aS-cis) 1,2,3,3a,8,8a-hexahydro - 1,3a,8 trimethyl-pyrrol-[2,3-b]-indol-5-ol-diacetyl-glycerylphosphoryl-2L -carboxylethyl carbamate ester]",–,–,–,dose-dependence and reversible inhibition,2.5,–,30,1,350,–
"CN1CC[C@@]2(C)c3cc(OC(=O)NCCOP(=O)(O)OCC(O)CO)ccc3N(C)[C@@H]12 (stereo partly drawn) [MGR002, (3aS-cis) 1,2,3,3a,8,8a-hexahydro-1,3a,8 trimethyl-pyrrol-[2,3-b]-indol-5-ol-glycerylphosphoryl-ethyl carbamate ester]",–,–,–,dose-dependence and reversible inhibition,2.5,pass through into the urine unchanged,30,1,485,–
